Assays:
[1] = molecular target: recombinant APS3v-HLA-DR3 (Homo sapiens, UniProt P01903+P01911, A100K/A102G/A103R/F55Y/I96L/K41T/P40S/Q125H/Q178H/Q39Y/R42S/S66N/T106N/W38E/Y61H); assay: ELISA inhibition assay of biotinylated peptide binding to recombinant APS3v-HLA-DR3; details: ELISA inhibition assay, final concentration 0.4 mM
Description: An in vitro binding assay was performed. […] On the day before the immunoassay was performed, a 96-well DELFIA yellow plate (PerkinElmer Life Science) was coated overnight with 20 μg/ml of L243 antibody [Hybridoma was purchased from ATCC, catalogue number HB-55, and IgG was purified by QED Bioscience (San Diego, CA)] in bicarbonate buffer, pH 9.6 (Sigma-Aldrich). L243 is a monoclonal antibody that specifically recognizes the DRa chain of HLA-DR when it is properly folded and complexed with the b chain. The plate was then washed with DELFIA wash buffer (diluted 1:25 from DELFIA wash concentrate, PerkinElmer) to wash off the excess L243 antibody. Blocking was performed using 2.5% BSA in PBS at room temperature for 1 h. After washing 4 times, 100 μl of the pre-incubated mix (containing recombinant APS3v-HLA-DR3 protein, APO, and small molecules) were added onto the plate and shaken at slow speed for 2 h at room temperature. After washing 4 times, DELFIA Europium-labeled streptavidin (PerkinElmer) diluted in DELFIA assay buffer (PerkinElmer) was added for 30 min and shaken at slow speed at room temperature. After washing for 6 times, DELFIA Enhancement Solution was added for 1 h until the optimal signal was reached. Time-resolved fluorescence was measured using the BMG reader (BMG Labtech, Cary, NC). A virtual screen identified 100 small molecules that were predicted to block the unique APS3v-HLA-DR3 pocket. To produce a manageable selection of compounds for validation we clustered the 100 compounds by their simplified molecular input line entry system (SMILES) similarity into 20 clusters. Of the 20 clusters we selected the top scoring members in each cluster. We have enhanced this list to include a total of 11 compounds that blocked APS3v-HLA-DR3, the key HLA-DR3 pocket that triggers APS3v. We tested the selected 11 small molecules identified by the virtual screen in our in vitro ELISA, to test whether the 11 small molecules can block APO peptide (the strongest known peptide binder to HLA-DR3) binding to recombinant APS3v-HLA-DR3. Of the 4 validated small molecules we selected S53 for further testing because it is the only one that has been used in humans before. […] ELISA was performed as previously described.

[2] = system: splenocytes and draining lymph node cells of immunized NOD-DR3 mice; assay: Small molecule inhibition of cytokine production ex vivo (Milliplex); format: cell-based, humanized NOD-DR3 mice; set-up: GAD.492-induced IFN-g production: unit not given here; details: 1 μM small molecule + GAD.492 20 μg/ml, 48 h; GAD.492 alone 56.3
Description: (§1) Cytokine Assays: Milliplex mouse cytokines/chemokine magnetic panel (Catalog no. MCYTOMAG-70K, EMD Millipore Corporation, Billerica, MA) was used to assay the cytokines, as described in the art. Briefly, splenocytes were plated at 2×10^6 cells per well in 500 μl of medium (RPMI/10% FBS). Supernatants from stimulated lymphocytes were collected 48 h after stimulation with peptides and stored in −80° C. until the assay was performed. The 96-well plate supplied in the kit was washed with the wash buffer supplied and the plate was shaken for 10 min at room temperature. Standards and quality controls were added, followed by the samples. The pre-mixed beads (Interferon gamma and IL-2) were sonicated, vortexed and added to the wells. After shaking the plate overnight at 4° C., the plate was washed twice with wash buffer. Detection antibodies were added for 1 h at room temperature, and Streptavidin-Phycoerythrin was added for 30 min at room temperature. The plate was washed twice and sheath fluid was added to resuspend the beads for 5 min before reading in Luminex 200 with xPONENT software (Luminex, Austin, Texas).
Small Molecule Inhibition of Cytokine Production Ex Vivo: Eight NOD-DR3 mice were immunized with the three thyroidal/islet peptides. Upon sacrifice, splenocytes were incubated with 1 μM of small molecules (S5, S9, S15, S53) together with TPO.758 (20 μg/ml), GAD.492 (20 μg/ml) or Tg.1571 (20 μg/ml) respectively to assess the blockade of these peptides' presentation by the tested small molecules. Supernatants from stimulated lymphocytes were collected 48 h after stimulation with peptides and small molecules, and stored in −80° C. until the cytokine assay was performed. […]

[3] = system: splenocytes and draining lymph node cells of immunized NOD-DR3 mice; assay: Interferon gamma response of lymphocytes of co-immunized NOD-DR3 mice to the peptides; format: cell-based, humanized NOD-DR3 mice; details: lymphocytes of mice co-immunized with Tg.1571, GAD.492 and TPO.758, stimulated 48 hours
Excerpt: Induction of T-Cell Response to Islet and Thyroid Autoantigens in Humanized NOD-DR3 Mice as a Model of APS3v: Previously we have identified 4 thyroid and islet peptides that triggered T-cell responses inNOD-DR3mice—Tg.1571,GAD.492, TPO.338 and TPO.758 (12). However, only 3 of these peptides (Tg.1571, GAD.492, and TPO.758) elicited significant B-cell (antibody) responses. Therefore, we concluded that these 3 peptides are the major T-cell epitopes in APS3v and used them to induce a model of APS3v in humanized NOD-DR3mice. To induce the APS3v model, 22 female NOD-DR3 mice 4-6 weeks old were co-immunized subcutaneously with these three peptides: Tg.1571, GAD.492 and TPO.758 (100 μg each peptide), in Complete Freund's Adjuvant (CFA, Sigma-Aldrich). Mice were immunized with peptides on day 0 and boosted on day 7, then sacrificed on day 21. As negative control, humanized NOD-DR3 littermates were immunized with PBS emulsified in CFA.
as §1, with “Texas). […]” for “Texas).”

Sequence of recombinant APS3v-HLA-DR3 (P01911 30-227 W38E/Q39Y/P40S/K41T/R42S/F55Y/Y61H/S66N/I96L/A100K/A102G/A103R/T106N/Q125H/Q178H): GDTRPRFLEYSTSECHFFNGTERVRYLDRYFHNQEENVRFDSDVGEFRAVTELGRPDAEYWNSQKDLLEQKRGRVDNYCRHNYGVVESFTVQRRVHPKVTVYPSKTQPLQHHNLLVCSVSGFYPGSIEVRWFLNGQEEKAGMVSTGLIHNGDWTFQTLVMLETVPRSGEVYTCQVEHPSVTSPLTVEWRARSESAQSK
Sequence of recombinant APS3v-HLA-DR3 (P01903 26-216): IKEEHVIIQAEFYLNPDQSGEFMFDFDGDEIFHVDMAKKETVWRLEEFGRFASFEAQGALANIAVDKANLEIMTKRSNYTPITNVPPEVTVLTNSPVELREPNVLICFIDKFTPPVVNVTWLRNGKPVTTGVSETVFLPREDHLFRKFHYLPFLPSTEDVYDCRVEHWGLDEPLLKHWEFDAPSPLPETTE

Compound	inhibition of binding of the 3 peptides (TPO.758, GAD.492, Tg.1571) to the HLA-DR3 pocket [1]	GAD.492-induced IFN-g production [2]	interferon gamma (IFN-g) response to the peptide [3] [pg/mL]
Cc1ccc(-c2nnc(Nc3ccc(C(=O)Nc4ccccc4)cc3)c3ccccc23)cc1S(N)(=O)=O [S5]	significant inhibition of binding for all 3 peptides	–	–
Cc1ccccc1Nc1nnc(-c2ccc(C)c(S(N)(=O)=O)c2)c2ccccc12 [S9]	only blocked GAD.492 and Tg.1571 binding	–	–
COc1ccc(Nc2nnc(-c3ccc(C)c(S(N)(=O)=O)c3)c3ccccc23)cc1C(N)=O [S15]	significant inhibition of binding for all 3 peptides	30.1	–
GAD.492: glutamic acid decarboxylase 65 (GAD65) peptide REGYEMVFDGKPQHTNVCF (SEQ ID NO: 2) (GAD.492)	–	–	99.6
TPO.758: thyroid peroxidase (TPO) peptide ESGRRVLVYSCRHGYELQG (SEQ ID NO: 3) (TPO.758)	–	–	717
Tg.1571: thyroglobulin (Tg) peptide EKVPESKVIFDANAPVAVRSKVPDSEF (SEQ ID NO: 1) (Tg.1571)	–	–	24.2
